pIC50: −log10 of the molar value. Like-named read-outs stand apart in the source and are kept apart here.

The target in assay [1] is T1, Cp149 (truncated form of a HBV core protein) (Hepatitis B virus genotype D subtype ayw, UniProt P03146).
T1 construct: Cp149 (amino acids 1-149) is a truncated form of a HBV core protein; histidine tag (cleaved yes); made in house; host or cells: Escherichia coli BL21(DE3)
Put plainly: Protein based assay: immunoblot analysis of in vitro HBV capsid assembly. In kind it is biochemical. The settings on record: for inhibition at 10 µM: read-out: Protein based assay (% inhibition, 10 μM); for inhibition at 0.1 µM: read-out: Protein based assay (% inhibition), 0.1 μM; for inhibition at 1 µM: read-out: Protein based assay (% inhibition), 1 μM. How it is done: Cp149 (amino acids 1-149) is a truncated form of a HBV core protein. It was expressed in Escherichia coli, and the expressed protein was purified. The recombinant Cp149 was expressed in E. coli BL21(DE3) cells cultured in LB medium at 37° C. When the culture reached an OD600 of 0.7 to 0.8, expression of the culture was induced with 0.5 mM isopropyl-β-d-thiogalactopyranoside and the culture was cooled to 16° C. After 16 hours, the cells were harvested, flash-frozen in liquid nitrogen, and stored at −80° C. To purify Cp149, thawed cells were resuspended in lysis buffer (20 mM Tris-HCl pH 9.0, 200 mM NaCl, 10 mM imidazole, 10 μg per mL DNaseI, 1 mM phenylmethylsulfonyl fluoride), and treated with ultrasonic waves. The supernatant was loaded onto Ni-NTA affinity resin. Proteins were eluted using a 20 mM to 500 mM imidazole gradient dissolved in lysis buffer. After removing the histidine tag with thrombin, the protein was further purified by HiTrap Q anion exchange chromatography (17115401, GE Healthcare).
To determine the effect on in vitro Cp149 assembly, compounds of the present invention were added to the Cp149-containing suspension. The final concentration of Cp149 was 1 mg per mL, and the compounds of the present invention were added at concentrations of 0.1 to 10 μM. The suspension was mixed with reaction buffer (150 mM HEPES, pH 7.5, 15 mM NaCl) added in a 2:1 ratio. In vitro assembly was performed at 37° C. for 1 hour, and HBV capsid was detected by immunoblot analysis using an anti-HBV core antibody (1:2000, B0586, Dako).

Another assay concerns HBV DNA. The assay can be described thus: Quantitative PCR for measuring HBV DNA in cells (HBV DNA quantification). It is filed as cell-based. How it is done: After treating cells with the indicated compounds, HBV DNA secreted into the medium and intracellular HBV DNA were extracted, purified, and quantified by quantitative PCR. To isolate the secreted HBV DNA, the culture medium was recovered and centrifuged at 15,000×g to remove debris. The medium was diluted 1:1 with phosphate-buffered saline (PBS), and 1 M NaOH solution was added to a final concentration of 0.1 M. The mixture was incubated at 37° C. for 1 hour. The protein was denatured by adding 2M Tris-HCl solution (pH 7.5) to a final concentration of 0.2 M and incubating at 98° C. for 5 minutes. The protein precipitation was removed by centrifugation at 15,000×g, and the supernatant was subjected to PCR with HBV DNA primer and probe sets:
Forward: 5′-[…]-3′, Reverse: 5′-[…]-3′, Probe: 5′-[…]-3′.

[2] abbreviates: read-out: HBV DNA quantification (IC50 μM).
[3] abbreviates: Hepatitis B virus; read-out: HBV DNA quantification (IC50 μM).
[4] abbreviates: Hepatitis B virus, read-out: HBV DNA quantification (IC50 μM).
Where [5] appears, read: Hepatitis B virus, read-out: HBV DNA quantification.

T1 sequence (P03146 1-149): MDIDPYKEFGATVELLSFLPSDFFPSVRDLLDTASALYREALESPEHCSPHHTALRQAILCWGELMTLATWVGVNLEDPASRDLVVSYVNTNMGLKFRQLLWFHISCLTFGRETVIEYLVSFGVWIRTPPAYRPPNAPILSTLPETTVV

For “6-(4-aminopiperidin-1-yl)-2-(methylsulfonyl)-N-(3,4,5-trifluorophenyl)pyrimidin-4-amine [Compound 26h]”, the “Protein based assay (% inhibition), 0.1 μM” value in assay [1] (compound 0.1 μM) came out at 29%. Moreover, in assay [1] (compound 1 μM), the “Protein based assay (% inhibition), 1 μM” value is on record as 96%. For the same compound, in the assay on HBV DNA (setting [2]), the IC50 was 0.292 µM.

`COc1ncccc1C(=O)NCCNc1cc(Nc2ccc(N3CCOCC3)cc2)nc(SC)n1` [Compound 4a, 2-methoxy-N-(2-(2-(methylthio)-6-(4-morpholinophenylamino)pyrimidin-4-ylamino)ethyl)nicotinamide]: in assay [1], the pIC50 is 5.01 and the inhibition at 10 µM turned out to be 23%. Besides, in the assay on HBV DNA (setting [3]), the IC50 is greater than 10 µM.

For `COc1cncc(C(=O)NCCNc2cc(Nc3ccc(N4CCOCC4)cc3)nc(SC)n2)c1` [Compound 4b, 5-methoxy-N-(2-(2-(methylthio)-6-(4-morpholinophenylamino)pyrimidin-4-ylamino)ethyl)nicotinamide], the inhibition at 10 µM in assay [1] worked out at 37%. Moreover, the half-inhibitory concentration (IC50) in the assay with HBV DNA (setting [3]) was greater than 10 µM.

With `CSc1nc(NCCNC(=O)c2ccc(F)cc2)cc(Nc2ccc(N3CCOCC3)cc2)n1` [Compound 4c, 4-fluoro-N-(2-(2-(methylthio)-6-(4-morpholinophenylamino)pyrimidin-4-ylamino)ethyl)benzamide], the inhibition at 10 µM in assay [1] turned out to be 0%. Besides, the IC50 with HBV DNA (setting [3]) is greater than 10 µM.

Regarding `CSc1nc(NCCNC(=O)c2ccc(Cl)cc2Cl)cc(Nc2ccc(N3CCOCC3)cc2)n1` [Compound 4d, 2,4-dichloro-N-(2-(2-(methylthio)-6-(4-morpholinophenylamino)pyrimidin-4-ylamino)ethyl)benzamide], the inhibition at 10 µM in assay [1] was found to be 0%. In addition, the IC50 in the assay with HBV DNA (setting [4]) was greater than 10 µM.

Consider `COc1ncccc1C(=O)NCCNc1cc(Nc2ccc(N3CCOCC3)cc2)nc([S+](C)[O-])n1` (stereo not drawn) [Compound 5a, 2-methoxy-N-(2-(2-(methylsulfinyl)-6-(4-morpholinophenylamino)pyrimidin-4-ylamino)ethyl)nicotinamide], for which, in assay [1], the pIC50 was 5.28, the inhibition at 0.1 µM stood at 43%, the inhibition at 1 µM amounted to 83% and the inhibition at 10 µM stood at 95%. For the same compound, the IC50 with HBV DNA (setting [3]) is 0.402 µM.

In the case of `COc1cncc(C(=O)NCCNc2cc(Nc3ccc(N4CCOCC4)cc3)nc([S+](C)[O-])n2)c1` (stereo not drawn) [Compound 5b, 5-methoxy-N-(2-(2-(methylsulfinyl)-6-(4-morpholinophenylamino)pyrimidin-4-ylamino)ethyl)nicotinamide], the inhibition at 10 µM in assay [1] was 78%. Also, the IC50 in the assay on HBV DNA (setting [3]) is greater than 10 µM.

On to `C[S+]([O-])c1nc(NCCNC(=O)c2ccc(F)cc2)cc(Nc2ccc(N3CCOCC3)cc2)n1` (stereo not drawn) [Compound 5c, 4-fluoro-N-(2-(2-(methylsulfinyl)-6-(4-morpholinophenylamino)pyrimidin-4-ylamino)ethyl)benzamide], for which the inhibition at 10 µM in assay [1] was found to be 0%. Besides, the IC50 with HBV DNA (setting [3]) is greater than 10 µM.

Take `C[S+]([O-])c1nc(NCCNC(=O)c2ccc(Cl)cc2Cl)cc(Nc2ccc(N3CCOCC3)cc2)n1` (stereo not drawn) [Compound 5d, 2,4-dichloro-N-(2-(2-(methylsulfinyl)-6-(4-morpholinophenylamino)pyrimidin-4-ylamino)ethyl)benzamide]: the inhibition at 10 µM in assay [1] was 0%. Besides, in the assay with HBV DNA (setting [4]), the IC50 is greater than 10 µM.

For `COc1ncccc1C(=O)NCCNc1cc(Nc2ccccc2)nc(SC)n1` [Compound 8a, 2-methoxy-N-(2-(2-(methylthio)-6-(phenylamino)pyrimidin-4-ylamino)ethyl)nicotinamide], the inhibition at 10 µM in assay [1] turned out to be 0%. Besides, in the assay with HBV DNA (setting [5]), the pIC50 was less than 5.00.

For the compound `COc1ncccc1C(=O)NCCNc1cc(Nc2ccc(F)cc2)nc(SC)n1` [Compound 8b, N-(2-(6-(4-fluorophenylamino)-2-(methylthio)pyrimidin-4-ylamino)ethyl)-2-methoxynicotinamide], the inhibition at 10 µM in assay [1] was found to be 74%.

With `COc1ncccc1C(=O)NCCNc1cc(Nc2ccc(Cl)cc2)nc(SC)n1` [Compound 8c, N-(2-(6-(4-chlorophenylamino)-2-(methylthio)pyrimidin-4-ylamino)ethyl)-2-methoxynicotinamide], the inhibition at 10 µM in assay [1] amounted to 26%. The pIC50 in the assay on HBV DNA (setting [5]) is less than 5.00.

For `COc1ncccc1C(=O)NCCNc1cc(Nc2ccc(Br)cc2)nc(SC)n1` [Compound 8d, N-(2-(6-(4-bromophenylamino)-2-(methylthio)pyrimidin-4-ylamino)ethyl)-2-methoxynicotinamide], the inhibition at 10 µM in assay [1] was determined as 76%. Moreover, in the assay with HBV DNA (setting [5]), the pIC50 is less than 5.00.

In the case of `COc1ncccc1C(=O)NCCNc1cc(Nc2ccc(I)cc2)nc(SC)n1` [Compound 8e, N-(2-(6-(4-iodophenylamino)-2-(methylthio)pyrimidin-4-ylamino)ethyl)-2-methoxynicotinamide], the inhibition at 10 µM in assay [1] turned out to be 43%.

Regarding `COc1ncccc1C(=O)NCCNc1cc(Nc2ccc(F)c(F)c2)nc(SC)n1` [Compound 8f, N-(2-(6-(3,4-difluorophenylamino)-2-(methylthio)pyrimidin-4-ylamino)ethyl)-2-methoxynicotinamide], in assay [1], the inhibition at 10 µM stood at 37%. The pIC50 with HBV DNA (setting [5]) is less than 5.00.

In the case of `COc1ncccc1C(=O)NCCNc1cc(Nc2ccc(F)cc2Cl)nc(SC)n1` [Compound 8g, N-(2-(6-(2-chloro-4-fluorophenylamino)-2-(methylthio)pyrimidin-4-ylamino)ethyl)-2-methoxynicotinamide], the inhibition at 10 µM in assay [1] was 43%. The pIC50 in the assay on HBV DNA (setting [5]) was less than 5.00.

`COc1ncccc1C(=O)NCCNc1cc(Nc2ccccc2)nc([S+](C)[O-])n1` (stereo not drawn) [Compound 9a, 2-methoxy-N-(2-(2-(methylsulfinyl)-6-(phenylamino)pyrimidin-4-ylamino)ethyl)nicotinamide]: in assay [1], the inhibition at 0.1 µM is 14% and the inhibition at 1 µM worked out at 83%. In the assay on HBV DNA (setting [4]), the IC50 came out at 0.484 µM.

Take `COc1ncccc1C(=O)NCCNc1cc(Nc2ccc(F)cc2)nc([S+](C)[O-])n1` (stereo not drawn) [Compound 9b, N-(2-(6-(4-fluorophenylamino)-2-(methylsulfinyl)pyrimidin-4-ylamino)ethyl)-2-methoxynicotinamide]: in assay [1], the inhibition at 0.1 µM is 32% and the inhibition at 1 µM is 83%. In addition, the IC50 in the assay on HBV DNA (setting [3]) amounted to 0.21 µM.

Take `COc1ncccc1C(=O)NCCNc1cc(Nc2ccc(Cl)cc2)nc([S+](C)[O-])n1` (stereo not drawn) [Compound 9c, N-(2-(6-(4-chlorophenylamino)-2-(methylsulfinyl)pyrimidin-4-ylamino)ethyl)-2-methoxynicotinamide]: in assay [1], the inhibition at 0.1 µM worked out at 27% and the inhibition at 1 µM came out at 80%. Moreover, in the assay on HBV DNA (setting [4]), the IC50 was 0.299 µM.

Take `COc1ncccc1C(=O)NCCNc1cc(Nc2ccc(Br)cc2)nc([S+](C)[O-])n1` (stereo not drawn) [Compound 9d, N-(2-(6-(4-bromophenylamino)-2-(methylsulfinyl)pyrimidin-4-ylamino)ethyl)-2-methoxynicotinamide]: in assay [1], the inhibition at 0.1 µM turned out to be 27% and the inhibition at 1 µM turned out to be 82%. Moreover, in the assay with HBV DNA (setting [4]), the IC50 stood at 0.177 µM.

For the compound `CS(=O)(=O)c1nc(Nc2ccc(F)c(Cl)c2)cc(N2C[C@H]3C[C@@H]2CN3)n1` [Compound 29a, 6-((1R,4R)-2,5-diazabicyclo[2.2.1]heptan-2-yl)-N-(3-chloro-4-fluorophenyl)-2-(methylsulfonyl)pyrimidin-4-amine], in the assay on HBV DNA (setting [4]), the IC50 came to 0.15 µM.

On to `CS(=O)(=O)c1nc(Nc2ccc(F)c(Cl)c2)cc(N2CC3(CNC3)C2)n1` [Compound 29b, N-(3-chloro-4-fluorophenyl)-2-(methylsulfonyl)-6-(2,6-diazaspiro[3.3]heptan-2-yl)pyrimidin-4-amine], for which the IC50 in the assay on HBV DNA (setting [4]) was 0.235 µM.

As for `CS(=O)(=O)c1nc(Nc2ccc(F)c(Cl)c2)cc(N2C[C@@H]3C[C@H]2CN3)n1` [Compound 29c, 6-((1S,4S)-2,5-diazabicyclo[2.2.1]heptan-2-yl)-N-(3-chloro-4-fluorophenyl)-2-(methylsulfonyl)pyrimidin-4-amine], the IC50 with HBV DNA (setting [4]) was 0.428 µM.

With `CS(=O)(=O)c1nc(Nc2ccc(F)c(Cl)c2)cc(N2C[C@@H]3[C@@H](N)[C@@H]3C2)n1` [Compound 29d, (1R,5S,6s)-3-(6-(3-chloro-4-fluorophenylamino)-2-(methylsulfonyl)pyrimidin-4-yl)-3-azabicyclo[3.1.0]hexan-6-amine], the IC50 in the assay with HBV DNA (setting [2]) was found to be 0.769 µM.

Values taken from patent US20230399320A1, “NOVEL CAPSID ASSEMBLY INHIBITOR” (Pelemed Co., Ltd., priority 2020, published 2023).
